# Test system: Isolated medial neurons from Aplysia oculifera pleuropedal ganglia
# Assay type: cell-based
smiles,measurement,value
NC1=N[C@H](O)[C@H]2[C@H]3O[C@]4(O)O[C@@H]([C@@H](O)[C@@]2(N1)[C@@H]4O)[C@]3(O)CO [tetrodotoxin],effect on TxI-induced spike prolongation,reduced the TxI-induced spike prolongation

# — patent publication US6624288B1 (priority 1997, dated 2003)
